Laboratory results reported in publication PMC4601023, “Novel anticancer agent, SQAP, binds to focal adhesion kinase and modulates its activity” (Scientific Reports, 2015).

Key:
[1] = molecular target: VEGF (Homo sapiens, UniProt P15692); assay: SPR analysis of SQAP-VEGF interaction; type: binding; conditions: data not shown
Source text: The phosphorylation of FAK in response to VEGF plays an important role in the regulation of endothelial cell migration during angiogenesis. Therefore we hypothesized that SQAP activity could potentially be mediated through binding to FAK. […] In this region, FAK interacts with paxillin through FAT domain and becomes autophosphorylated on Y397[29][30]. Y397 is an autophosphorylation site which is crucial for FAK activity and has been related to apoptosis and tumor growth. FAK is also phosphorylated at Y925, leading to the regulation of adhesion turnover and cell motility. Thus we chose to study the FAK phosphorylation on Y397 and Y925 residues. Initially, we examined whether SQAP affected phosphorylation of FAK in HUVEC cells stimulated with VEGF in the presence or absence of SQAP. […] Since SQMG was previously reported to bind to VEGF[34], we could not rule out the possibility of a binding between SQAP and VEGF so we analyzed this interaction by SPR. […] Therefore, we investigated whether SQAP could inhibit FAK phosphorylation independently of VEGF. We analyzed FAK phosphorylation in the absence of VEGF and observed that SQAP inhibited the phosphorylation of FAK signal within 1 h in a VEGF independent manner (Fig. 5B). Additionally, we treated HUVEC with VEGF in the presence of SQMG and SQP.

[2] = test system: VEGF mRNA expression in A549 cells; assay: VEGF mRNA expression, quantitative real-time RT-PCR, A549; type: cell-based, human; conditions: A549, 6 h, increased concentration of SQAP
Protocol: Figure 5 Effect of SQAP on FAK phosphorylation. The level of FAK phosphorylated at Y397 and Y925 was evaluated by Western blotting. (A) HUVEC cells were serum-depleted for 20 h before treatment with SQAP or vehicle for 30 min followed by treatment with or without VEGF (50 ng/mL) for 30 min. (B) HUVEC cells were cultured as stated in section A and then treated with SQAP, SQMG or SQP. (C) A549 cells were serum-deprived for 48 h before pretreatment with SQAP or vehicle followed by treatment with or without fibronectin (10 μg/mL) for 30 min. (D) A549 cells were cultured as stated in section C and then treated with SQAP, SQMG or SQP. (E–F) HUVEC and A549 cells were treated with SQAP for 6 h before adding an RNA stabilization reagent and prepared for Quantitative real-time RT-PCR.
Total RNA was prepared using an RNeasy Mini Kit (QIAGEN Inc., Hilden, Germany) according to the manufacturer’s instructions and then reverse-transcribed to cDNA with Transcriptor First Strand cDNA Synthesis Kit (Roche Applied Science, Mnnheim, Germany). Measurement of gene expression by quantitative analysis was performed using the LightCycler system (Roche Applied Science). Quantitative real-time RT-PCR analysis of β-actin, TSP-1 and VEGF-A expression were performed using the LightCycler FastStart DNA MasterPLUS SYBR Green I system (Roche Applied Science). […]

[3] = test system: human lung small cell carcinoma, Lu-65; assay: Tumor xenograft, SQAP plus X-irradiation; type: in vivo, KSN nude mice; conditions: 2 mg/kg i.v. five injections plus X-irradiation 8 Gy/fraction x 2; Supplementary Fig. S1, also ref 12
Protocol: Cell lines and animal studies: A human lung small cell carcinoma, Lu-65, was obtained from the Cell resource Center for Biomedical Research (Sendai, Japan) and maintained in RPMI-1640 medium supplemented with 10% fetal bovine serum, 100 units/ml penicillin, 100 μg/ml streptomycin, and 1 mM sodium pyruvate at 37 °C in 5% CO2 humidified atmosphere. Viable tumor cell (1 × 106) were implanted subcutanceously into the right hind legs of male KSN nude mice (6–8 weeks old). After the tumor volume reached 50 to 100 mm3, the tumor were treated and the tumor growth was monitored by palpation. The size of the palpable tumors was measured using calipers every two days. The tumor volume (V, […]) was estimated based on the formula as follows; (minor axis)^2 × (major axis) × 0.5.
Treatments: Synthesized SQAP was prepared one day before experimentation, and dissolved in saline at the appropriate concentrations. To analyze the tumor radioresponse, 2 mg/kg SQAP (dissolved in 100 μl of saline) was administered intravenously to the ‘SQAP’ group and ‘Combination’ group (adiministered five times daily from days zero to four). The same amount of saline was injected in the ‘control’ group and ‘X-irradiation’ group. […]

Sequence of VEGF (P15692 whole entry, species assumed, the tested form may be a part): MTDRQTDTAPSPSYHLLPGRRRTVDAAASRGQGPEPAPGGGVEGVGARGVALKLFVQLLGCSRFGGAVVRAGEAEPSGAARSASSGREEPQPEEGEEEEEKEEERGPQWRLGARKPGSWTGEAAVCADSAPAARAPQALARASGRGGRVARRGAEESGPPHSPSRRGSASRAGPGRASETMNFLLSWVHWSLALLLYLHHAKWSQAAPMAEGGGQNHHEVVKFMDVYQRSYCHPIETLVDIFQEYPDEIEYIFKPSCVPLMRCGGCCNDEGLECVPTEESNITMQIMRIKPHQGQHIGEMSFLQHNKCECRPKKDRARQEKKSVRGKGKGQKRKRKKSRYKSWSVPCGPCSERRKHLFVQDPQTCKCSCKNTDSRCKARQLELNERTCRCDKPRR

binding to VEGF (SPR) [1]: did bind
Structure (SMILES): CCCCCCCCCCCCCCCCCC(=O)OCCCO[C@H]1O[C@H](CS(=O)(=O)O)[C@@H](O)[C@H](O)[C@H]1O [SQAP, sulfoquynovosylacylpropanediol]
VEGF production level (mRNA, RT-PCR) [2]: mild production decrease | tumor arrest in combination with irradiation [3]: synergistically enhanced tumor arrest
